Laboratory results reported in PubChem BioAssay AID1794829.
Records with an inconclusive call do not appear.

Molecular target: Solute carrier family 2, facilitated glucose transporter member 2 (Homo sapiens) (UniProt P11168)
Assay: SLC2A2-mediated glucose transport in cells – cell-based, flow cytometry, glucose FRET sensor, HEK293 JumpIN TRex, wild type, dose response (AID 1794829)
Details: HEK293 JumpIN SLC2A2-OE

Sequence of Solute carrier family 2, facilitated glucose transporter member 2 (Homo sapiens) (P11168 whole entry, looked up): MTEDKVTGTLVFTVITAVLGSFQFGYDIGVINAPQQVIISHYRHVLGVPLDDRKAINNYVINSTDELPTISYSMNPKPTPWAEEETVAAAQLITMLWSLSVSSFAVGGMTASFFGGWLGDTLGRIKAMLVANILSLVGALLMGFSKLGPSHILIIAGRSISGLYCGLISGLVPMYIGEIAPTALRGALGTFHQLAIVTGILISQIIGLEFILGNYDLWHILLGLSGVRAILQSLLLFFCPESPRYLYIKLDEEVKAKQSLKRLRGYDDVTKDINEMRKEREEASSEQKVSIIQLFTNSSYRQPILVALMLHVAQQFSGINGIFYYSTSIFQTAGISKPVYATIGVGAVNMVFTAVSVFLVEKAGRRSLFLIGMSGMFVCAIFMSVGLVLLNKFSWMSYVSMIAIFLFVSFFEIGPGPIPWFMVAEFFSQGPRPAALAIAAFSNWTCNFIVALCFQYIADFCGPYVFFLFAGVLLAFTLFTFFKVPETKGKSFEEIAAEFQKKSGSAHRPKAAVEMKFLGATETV

EC50 (substrate-induced FRET increase): 710 µM
SMILES: OC[C@H]1OC(O)[C@H](O)[C@@H](O)[C@@H]1O (stereo partly specified)
